Experimental data taken from PubChem BioAssay (NCI).
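Cells were grown in 96-well plates and exposed to each compound for 48 hours at five concentrations; endpoints were interpolated linearly between bracketing concentrations, or set to the highest concentration if not reached. At the TGI there is no net growth.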

Experiments:
Test in all cases: NCI-60 cell line screen, 48 h
[1] = tested on: UACC-257 melanoma
[2] = tested on: TK-10 renal
[3] = tested on: OVCAR-5 ovarian
[4] = tested on: NCI-H460 lung
[5] = tested on: UO-31 renal
[6] = tested on: M14 melanoma
[7] = tested on: HL-60(TB) leukemia
[8] = tested on: SK-MEL-2 melanoma
[9] = tested on: MOLT-4 leukemia
[10] = tested on: 786-0 renal
[11] = tested on: MALME-3M melanoma
[12] = tested on: NCI-H23 lung
[13] = tested on: UACC-62 melanoma
[14] = tested on: U251 CNS
[15] = tested on: SK-MEL-28 melanoma
[16] = tested on: EKVX NSCLC
[17] = tested on: SR leukemia
[18] = tested on: DU-145 prostate
[19] = tested on: MDA-MB-231 breast
[20] = tested on: NCI/ADR-RES ovarian

`CCN(CC)Cc1cc(Nc2c3ccccc3nc3c4ccccc4n(C)c23)ccc1O` gave a TGI [1] of 23.3 µM, a TGI [2] of 28.2 µM and a TGI [3] of 21.9 µM. It also gave a TGI [4] of 24.5 µM, a TGI [5] of 22.8 µM and a TGI [6] of 3.68 µM. It also gave a TGI [7] of 12.9 µM, a TGI [8] of 36.2 µM and a TGI [9] of 8.47 µM. The TGI [10] was 14 µM, the TGI [11] was 27 µM and the TGI [12] was 30.3 µM. For the same compound, the TGI [13] was 17.2 µM, the TGI [14] was 22.7 µM and the TGI [15] was 15.3 µM. For the same compound, the TGI [16] was 29.7 µM.
In the case of `CC1C=C[C@H](Sc2ccccc2)CC[C@@]1(C)O` (some centres not stated), the TGI [1] is reported as > 100 µM, the TGI [2] is reported as > 100 µM and the TGI [3] is reported as > 100 µM. For the same compound, the TGI [4] was > 100 µM, the TGI [5] was > 100 µM and the TGI [6] was > 100 µM. The TGI [7] was > 100 µM, the TGI [8] was > 100 µM and the TGI [9] was > 100 µM. For the same compound, the TGI [10] was > 100 µM, the TGI [11] was > 100 µM and the TGI [12] was > 100 µM. The TGI [13] was > 100 µM, the TGI [14] was > 100 µM and the TGI [15] was > 100 µM. For the same compound, the TGI [16] was > 100 µM.
In the case of `CCOC(=O)c1[nH]c(CN(C)Cc2[nH]c(C(=O)OCC)c(C)c2C(=O)OCc2ccccc2)c(C(=O)OCc2ccccc2)c1C`, the TGI [1] is reported as > 100 µM, the TGI [2] is reported as 43.8 µM and the TGI [3] is reported as 44.8 µM. For the same compound, the TGI [4] was 62.2 µM, the TGI [5] was > 100 µM and the TGI [6] was 29.1 µM. For the same compound, the TGI [7] was > 100 µM, the TGI [9] was > 100 µM and the TGI [10] was 36.2 µM. For the same compound, the TGI [11] was > 100 µM, the TGI [17] was > 100 µM and the TGI [12] was 42 µM. For the same compound, the TGI [13] was 85.3 µM, the TGI [14] was 34 µM and the TGI [15] was > 100 µM. The TGI [16] was 42.5 µM.
In the case of `CC(/C=N\NC(=S)N(C)C)=N/NC(=S)N(C)C`, the TGI [1] is reported as > 100 µM, the TGI [2] is reported as > 100 µM and the TGI [3] is reported as > 100 µM. For the same compound, the TGI [4] was > 100 µM, the TGI [5] was > 39.2 µM and the TGI [6] was > 54.1 µM. The TGI [8] was 70.7 µM, the TGI [9] was > 100 µM and the TGI [18] was > 100 µM. The TGI [10] was > 59.8 µM, the TGI [11] was > 34.2 µM and the TGI [12] was > 37.7 µM. For the same compound, the TGI [13] was > 100 µM, the TGI [14] was > 100 µM and the TGI [19] was > 100 µM. For the same compound, the TGI [15] was > 100 µM and the TGI [16] was > 100 µM.
For `CCOC(=O)/C(C[C@H]1OC(C)(C)O[C@@H]1[C@H]1COC(C)(C)O1)=N/O`, the TGI [1] was > 100 µM, the TGI [2] was > 100 µM and the TGI [3] was > 100 µM. The TGI [4] was > 100 µM, the TGI [5] was > 100 µM and the TGI [6] was > 100 µM. For the same compound, the TGI [20] was > 100 µM, the TGI [7] was > 100 µM and the TGI [8] was > 100 µM. For the same compound, the TGI [9] was > 100 µM, the TGI [18] was > 100 µM and the TGI [10] was > 100 µM. The TGI [11] was > 100 µM, the TGI [12] was > 100 µM and the TGI [13] was > 100 µM. For the same compound, the TGI [14] was > 100 µM, the TGI [19] was > 100 µM and the TGI [15] was > 100 µM. For the same compound, the TGI [16] was > 100 µM.
`CC1(C)CCC[C@]2(C)[C@@H]1CC[C@@]13O[C@@H]1C1=C(CO)C(=O)OC1=C[C@@H]23` gave a TGI [1] of 71.2 µM, a TGI [2] of 55.5 µM and a TGI [3] of 23.2 µM. The TGI [4] was 67.4 µM, the TGI [5] was 26 µM and the TGI [6] was 33.9 µM. For the same compound, the TGI [20] was 37.7 µM, the TGI [8] was 53.8 µM and the TGI [9] was > 100 µM. For the same compound, the TGI [18] was 39.7 µM, the TGI [10] was 27.3 µM and the TGI [11] was 23.7 µM. The TGI [12] was 46.5 µM, the TGI [13] was 40.7 µM and the TGI [14] was 67.4 µM. For the same compound, the TGI [19] was 81.9 µM, the TGI [15] was 31.7 µM and the TGI [16] was 29.2 µM.
